Reference: US6710877B2, “Apparatus and methods for determining biomolecular interactions” (Corning Incorporated, priority 2001, dated 2004)
Where two headings read alike, the source gives them in different places.

Legend:
Format in all cases: binding
streptavidin [1] = molecular target: T1, streptavidin (Streptomyces avidinii, UniProt P22629); experiment: Three slot diffraction sensor: leaching of ligand out of the central sensing volume
T1 construct: purchased Sigma Corp., St. Louis, Mo; B3763

streptavidin [2] = molecular target: T1, streptavidin; experiment: Dual compartment absorbance sensor: leaching of ligand from agarose gel containing streptavidin; conditions: for effective binding constant k from fit of equation 3 to concentration-time traces: 2.5% agarose gel, streptavidin, 8.4×10^−4 M ligand, 0.1×SSC buffer, 220 nm absorbance; for coefficient1 of fitting function f=coefficient1*Error_Function(coefficient2*time^1/2) / coefficient2 of fitting function f=coefficient1*Error_Function(coefficient2*time^1/2): average of traces, Marquardt-Levenberg fit
anti-biotin = experiment: Dual compartment absorbance sensor: leaching of ligand from agarose gel containing anti-biotin; conditions: anti-biotin instead of streptavidin, otherwise as Example 2

T1 sequence (P22629 25-183, species assumed): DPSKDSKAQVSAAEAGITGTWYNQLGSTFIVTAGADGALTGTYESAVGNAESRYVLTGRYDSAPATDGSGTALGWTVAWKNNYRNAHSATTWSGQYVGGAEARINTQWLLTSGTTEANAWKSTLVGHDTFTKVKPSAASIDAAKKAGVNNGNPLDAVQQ

Compound: O=C(O)CCCC[C@@H]1SC[C@@H]2NC(=O)N[C@@H]21 [biotin]
- leaching out of central sensing volume, peak-to-peak intensity difference versus time (FIG. 10) (streptavidin [1]): more activity in the biotin traces
- effective binding constant k from fit of equation 3 to concentration-time traces (streptavidin [2]): 0.01186 min⁻¹
- coefficient1 of fitting function f=coefficient1*Error_Function(coefficient2*time^1/2) (streptavidin [2]): ~1.5 mM
- coefficient2 of fitting function f=coefficient1*Error_Function(coefficient2*time^1/2) (streptavidin [2]): 0.1089
- factor by which binding constant k of biotin exceeds that of glutamine (streptavidin [2]; biotin versus glutamine curve-fits): 4
- binding affinities with anti-biotin in upstream compartment (FIGS. 7A and 7B) (anti-biotin): indistinguishable

Compound: NC(=O)CC[C@H](N)C(=O)O [glutamine]
- leaching out of central sensing volume, peak-to-peak intensity difference versus time (FIG. 10) (streptavidin [1]; three samples each, 1×TBE buffer, qualitative): much slower than biotin leaching
- effective binding constant k from fit of equation 3 to concentration-time traces (streptavidin [2]): 0.00325 min⁻¹
- coefficient1 of fitting function f=coefficient1*Error_Function(coefficient2*time^1/2) (streptavidin [2]): ~1.6 mM
- coefficient2 of fitting function f=coefficient1*Error_Function(coefficient2*time^1/2) (streptavidin [2]): 0.0570
- binding affinities with anti-biotin in upstream compartment (FIGS. 7A and 7B) (anti-biotin): indistinguishable
